Measured values: US20250114374A1, “BCL-2 INHIBITORS” (Newave Pharmaceutical Inc., priority 2021, published 2025)
Like-named read-outs stand apart in the source and are kept apart here.

Tested on: RS4; 11 with G101V mutation
Experiment: In vitro anti-proliferation assay (ATPlite luminescence) in BCL-2-dependent ALL cell line RS4;11 with G101V mutation
Format: cell-based
Details: read-out: RS411-G101V IC50
Procedure, shortened: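 IC50 came from luminescent ATP quantification (ATPlite) following cell lysis. Compound dose ranges were applied for roughly 72 h to about 1×10^4 G101V-mutant RS4;11 cells per well, in 10% FBS medium.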

[1] = cellular anti-proliferative IC50, about 72 hours, medium with 10% FBS, ATPlite

Compound | IC50 [1] | IC50 (Homo sapiens, RS4-11, 72 h)
CC(C)Oc1ccccc1[C@@H]1CN(Cc2ccc(F)c(F)c2)CCN1C1CC2(CCN(c3cc(N4c5cc6cc[nH]c6nc5O[C@H]5COCC[C@@H]54)c(C(=O)NS(=O)(=O)c4cc5c(c([N+](=O)[O-])c4)N[C@H](C4CCOCC4)CO5)cc3F)CC2)C1 [Example 227, 4-{2-[(2R)-4-[(3,4-difluorophenyl)methyl]-2-(2-isopropoxyphenyl)piperazin-1-yl]-7-azaspiro[3.5]nonan-7-yl}-2-[(3R,8S)-2,5-dioxa-9,15,17-triazatetracyclo[8.7.0.0^{3,8}.0^{12,16}]heptadeca-1(10),11,13,16-tetraen-9-yl]-5-fluoro-N-[(3R)-5-nitro-3-(oxan-4-yl)-3,4-dihydro-2H-1,4-benzoxazin-7-ylsulfonyl]benzamide] | 119 nM | –
CC(C)Oc1ccccc1[C@@H]1CN(Cc2ccc(F)c(F)c2)CCN1C1CC2(CCN(c3ncc(C(=O)NS(=O)(=O)c4cc5c(c([N+](=O)[O-])c4)N[C@H](C4CCOCC4)CO5)c(N4c5cc6cc[nH]c6nc5O[C@H]5COCC[C@@H]54)c3F)CC2)C1 [Example 228, 6-{2-[(2R)-4-[(3,4-difluorophenyl)methyl]-2-(2-isopropoxyphenyl)piperazin-1-yl]-7-azaspiro[3.5]nonan-7-yl}-4-[(3R,8S)-2,5-dioxa-9,15,17-triazatetracyclo[8.7.0.0^{3,8}.0^{12,16}]heptadeca-1(10),11,13,16-tetraen-9-yl]-5-fluoro-N-[(3R)-5-nitro-3-(oxan-4-yl)-3,4-dihydro-2H-1,4-benzoxazin-7-ylsulfonyl]pyridine-3-carboxamide] | 202 nM | –
CC(C)Oc1ccccc1[C@@H]1CN([C@H]2COCc3c(F)cc(F)cc32)CCN1C1CC2(CCN(c3ccc(C(=O)NS(=O)(=O)c4cc5c(c([N+](=O)[O-])c4)N[C@H](C4CCOCC4)CO5)c(N4c5cc6cc[nH]c6nc5O[C@H]5COCC[C@@H]54)c3)CC2)C1 [Example 230, 4-(2-((R)-4-((R)-6,8-difluoroisochroman-4-yl)-2-(2-isopropoxyphenyl)piperazin-1-yl)-7-azaspiro[3.5]nonan-7-yl)-N-(((R)-5-nitro-3-(tetrahydro-2H-pyran-4-yl)-3,4-dihydro-2H-benzo[b][1,4]oxazin-7-yl)sulfonyl)-2-((5aS,9aR)-6,7,9,9a-tetrahydro-1H-pyrano[3,4-b]pyrrolo[3′,2′:5,6]pyrido[3,2-e][1,4]oxazin-5(5aH)-yl)benzamide] | – | 104 nM
CC(C)Oc1ccccc1[C@@H]1CN([C@@H]2COCc3c(F)cc(F)cc32)CCN1C1CC2(CCN(c3ccc(C(=O)NS(=O)(=O)c4cc5c(c([N+](=O)[O-])c4)N[C@H](C4CCOCC4)CO5)c(N4c5cc6cc[nH]c6nc5O[C@H]5COCC[C@@H]54)c3)CC2)C1 [Example 231, 4-(2-((R)-4-((S)-6,8-difluoroisochroman-4-yl)-2-(2-isopropoxyphenyl)piperazin-1-yl)-7-azaspiro[3.5]nonan-7-yl)-N-(((R)-5-nitro-3-(tetrahydro-2H-pyran-4-yl)-3,4-dihydro-2H-benzo[b][1,4]oxazin-7-yl)sulfonyl)-2-((5aS,9aR)-6,7,9,9a-tetrahydro-1H-pyrano[3,4-b]pyrrolo[3′,2′:5,6]pyrido[3,2-e][1,4]oxazin-5(5aH)-yl)benzamide] | – | 94.7 nM
COc1cc2c(nc1N1CCOC[C@@H]1C)COC[C@H]2N1CCN(C2CC3(CCN(c4ccc(C(=O)NS(=O)(=O)c5cc6c(c([N+](=O)[O-])c5)N[C@H](C5CCOCC5)CO6)c(N5c6cc7cc[nH]c7nc6O[C@H]6COCC[C@@H]65)c4)CC3)C2)[C@H](c2ccccc2OC(C)C)C1 [Example 232, 4-(2-((R)-2-(2-isopropoxyphenyl)-4-((S)-3-methoxy-2-((S)-3-methylmorpholino)-5,8-dihydro-6H-pyrano[3,4-b]pyridin-5-yl)piperazin-1-yl)-7-azaspiro[3.5]nonan-7-yl)-N-(((R)-5-nitro-3-(tetrahydro-2H-pyran-4-yl)-3,4-dihydro-2H-benzo[b][1,4]oxazin-7-yl)sulfonyl)-2-((5aS,9aR)-6,7,9,9a-tetrahydro-1H-pyrano[3,4-b]pyrrolo[3′,2′:5,6]pyrido[3,2-e][1,4]oxazin-5(5aH)-yl)benzamide] | – | 84.2 nM
COc1cc2c(nc1N1CCOC[C@@H]1C)COC[C@@H]2N1CCN(C2CC3(CCN(c4ccc(C(=O)NS(=O)(=O)c5cc6c(c([N+](=O)[O-])c5)N[C@H](C5CCOCC5)CO6)c(N5c6cc7cc[nH]c7nc6O[C@H]6COCC[C@@H]65)c4)CC3)C2)[C@H](c2ccccc2OC(C)C)C1 [Example 233, 4-(2-((R)-2-(2-isopropoxyphenyl)-4-((R)-3-methoxy-2-((S)-3-methylmorpholino)-5,8-dihydro-6H-pyrano[3,4-b]pyridin-5-yl)piperazin-1-yl)-7-azaspiro[3.5]nonan-7-yl)-N-(((R)-5-nitro-3-(tetrahydro-2H-pyran-4-yl)-3,4-dihydro-2H-benzo[b][1,4]oxazin-7-yl)sulfonyl)-2-((5aS,9aR)-6,7,9,9a-tetrahydro-1H-pyrano[3,4-b]pyrrolo[3′,2′:5,6]pyrido[3,2-e][1,4]oxazin-5(5aH)-yl)benzamide] | – | 4.64 nM
CC(C)Oc1ccccc1[C@@H]1CN(Cc2ccc(F)c(F)c2)CCN1C1CC2(CCN(c3nc(N4c5cc6cc[nH]c6nc5O[C@H]5COCC[C@@H]54)c(C(=O)NS(=O)(=O)c4cc5c(c([N+](=O)[O-])c4)N[C@H](C4CCOCC4)CO5)cc3F)CC2)C1 [Example 234, 6-{2-[(2R)-4-[(3,4-difluorophenyl)methyl]-2-(2-isopropoxyphenyl)piperazin-1-yl]-7-azaspiro[3.5]nonan-7-yl}-2-[(3R,8S)-2,5-dioxa-9,15,17-triazatetracyclo[8.7.0.0^{3,8}.0^{12,16}]heptadeca-1(10),11,13,16-tetraen-9-yl]-5-fluoro-N-[(3R)-5-nitro-3-(oxan-4-yl)-3,4-dihydro-2H-1,4-benzoxazin-7-ylsulfonyl]pyridine-3-carboxamide] | 181 nM | –
CC(C)Oc1ccccc1[C@@H]1CN(Cc2ccc(F)c(F)c2)CCN1C1CC2(CCN(c3nc(N4c5cc6cc[nH]c6nc5O[C@H]5COCC[C@@H]54)c(C(=O)NS(=O)(=O)c4cc5c(c([N+](=O)[O-])c4)N[C@H](C4CCOCC4)CO5)cc3F)CC2)C1 [Example 235, 6-{2-[(2R)-4-[(3,4-difluorophenyl)methyl]-2-(2-isopropoxyphenyl)piperazin-1-yl]-7-azaspiro[3.5]nonan-7-yl}-2-[(3R,8S)-2,5-dioxa-9,15,17-triazatetracyclo[8.7.0.0^{3,8}.0^{12,16}]heptadeca-1(10),11,13,16-tetraen-9-yl]-5-fluoro-N-[(3R)-5-nitro-3-(oxan-4-yl)-3,4-dihydro-2H-1,4-benzoxazin-7-ylsulfonyl]pyridine-3-carboxamide] | 2270 nM | –
CC(C)Oc1ccccc1[C@@H]1CN(Cc2ccc(F)c(F)c2)CCN1C1CC2(CCN(c3ccc(C(=O)NS(=O)(=O)c4cc5c(c([N+](=O)[O-])c4)N[C@H](C4CCOCC4)CO5)c(N4c5cc6c(F)c[nH]c6nc5O[C@H]5COCC[C@@H]54)c3)CC2)C1 [Example 236, 4-{2-[(2R)-4-[(3,4-difluorophenyl)methyl]-2-(2-isopropoxyphenyl)piperazin-1-yl]-7-azaspiro[3.5]nonan-7-yl}-2-[(3R,8S)-13-fluoro-2,5-dioxa-9,15,17-triazatetracyclo[8.7.0.0^{3,8}.0^{12,16}]heptadeca-1(10),11,13,16-tetraen-9-yl]-N-[(3R)-5-nitro-3-(oxan-4-yl)-3,4-dihydro-2H-1,4-benzoxazin-7-ylsulfonyl]benzamide] | 5.52 nM | –
CC(C)Oc1ccccc1[C@@H]1CN(Cc2ccc(F)c(F)c2)CCN1C1CC2(CCN(c3ccc(C(=O)NS(=O)(=O)c4cc5c(c([N+](=O)[O-])c4)N[C@H](C4CCOCC4)CO5)c(N4c5cc6cc[nH]c6nc5O[C@@H]5COCC[C@H]54)c3)CC2)C1 [Example 239, 4-{2-[(2R)-4-[(3,4-difluorophenyl)methyl]-2-(2-isopropoxyphenyl)piperazin-1-yl]-7-azaspiro[3.5]nonan-7-yl}-2-[(3S,8R)-2,5-dioxa-9,15,17-triazatetracyclo[8.7.0.0^{3,8}.0^{12,16}]heptadeca-1(10),11,13,16-tetraen-9-yl]-N-[(3R)-5-nitro-3-(oxan-4-yl)-3,4-dihydro-2H-1,4-benzoxazin-7-ylsulfonyl]benzamide] | 7.1 nM | –
CC(C)Oc1ccccc1[C@@H]1CN(Cc2ccc(F)c(F)c2)CCN1C1CC2(CCN(c3ccc(C(=O)NS(=O)(=O)c4cc5c(c([N+](=O)[O-])c4)N[C@H](C4CCOCC4)CO5)c(N4c5cc6cc[nH]c6nc5O[C@H]5CCOC[C@@H]54)c3)CC2)C1 [Example 240, 4-{2-[(2R)-4-[(3,4-difluorophenyl)methyl]-2-(2-isopropoxyphenyl)piperazin-1-yl]-7-azaspiro[3.5]nonan-7-yl}-2-[(3S,8S)-5,9-dioxa-2,11,13-triazatetracyclo[8.7.0.0^{3,8}.0^{12,16}]heptadeca-1(10),11,14,16-tetraen-2-yl]-N-[(3R)-5-nitro-3-(oxan-4-yl)-3,4-dihydro-2H-1,4-benzoxazin-7-ylsulfonyl]benzamide] | 6.94 nM | –
CC(C)Oc1ccccc1[C@@H]1CN(Cc2ccc(F)c(F)c2)CCN1C1CC2(CCN(c3ccc(C(=O)NS(=O)(=O)c4cc5c(c([N+](=O)[O-])c4)N[C@H](C4CCOCC4)CO5)c(N4c5cc6cc[nH]c6nc5O[C@@H]5CCOC[C@H]54)c3)CC2)C1 [Example 241, 4-{2-[(2R)-4-[(3,4-difluorophenyl)methyl]-2-(2-isopropoxyphenyl)piperazin-1-yl]-7-azaspiro[3.5]nonan-7-yl}-2-[(3R,8R)-5,9-dioxa-2,11,13-triazatetracyclo[8.7.0.0^{3,8}.0^{12,16}]heptadeca-1(10),11,14,16-tetraen-2-yl]-N-[(3R)-5-nitro-3-(oxan-4-yl)-3,4-dihydro-2H-1,4-benzoxazin-7-ylsulfonyl]benzamide] | 4.45 nM | –
